# According to ChEMBL document CHEMBL1201862, “PubChem BioAssay data set” (2004):
# Several values for one entry are separate records, joined by “and”; a condition that tells them apart may be missing. Equal entries are not always repeated.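 Compound exposure: 48 hours, 5 concentrations, 96-well plates. Here, GI50 denotes the concentration required for 50% inhibition of growth.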 Activity calls are given as the source filed them. Rule as the data show it: active = GI50 up to about 1.1 µM and inactive = higher.
# How the values were obtained:
# Assay in all cases: growth of human tumour cells (NCI), 48 h
# HCC 2998 = system: HCC 2998
# HOP-92 = system: HOP-92
# RPMI-8226 = system: RPMI-8226
# NCI/ADR-RES = system: NCI/ADR-RES
# MOLT-4 = system: MOLT-4
# Malme-3M = system: Malme-3M
# Hs-578T = system: Hs-578T
# SNB-75 = system: SNB-75
# T47D = system: T47D
# MCF7 = system: MCF7
# SF-295 = system: SF-295
# UACC-257 = system: UACC-257
# TK-10 = system: TK-10
# EKVX = system: EKVX
# DU-145 = system: DU-145
# SK-MEL-28 = system: SK-MEL-28
# CCRF-CEM = system: CCRF-CEM
# M14 = system: M14
# OVCAR-8 = system: OVCAR-8
# COLO 205 = system: COLO 205
# MDA-MB-231 = system: MDA-MB-231
# NCI-H23 = system: NCI-H23
# SR = system: SR
# HOP-62 = system: HOP-62
# SW-620 = system: SW-620
# PC-3 = system: PC-3
# MDA-MB-435 = system: MDA-MB-435
# K562 = system: K562
# UACC-62 = system: UACC-62
# KM12 = system: KM12
# HL-60 = system: HL-60
# HT-29 = system: HT-29
# SF-268 = system: SF-268
# SK-OV-3 = system: SK-OV-3
# HCT-15 = system: HCT-15
# IGROV-1 = system: IGROV-1
# A549 = system: A549
# OVCAR-4 = system: OVCAR-4
# RXF 393 = system: RXF 393
# CAKI-1 = system: CAKI-1
# 786-0 = system: 786-0
# SK-MEL-5 = system: SK-MEL-5
# SN12C = system: SN12C
# NCI-H522 = system: NCI-H522
# SNB-19 = system: SNB-19
# MDA-N = system: MDA-N
# SK-MEL-2 = system: SK-MEL-2
# A498 = system: A498
# NCI-H226 = system: NCI-H226
# LOX IMVI = system: LOX IMVI
# OVCAR-3 = system: OVCAR-3
# U-251 = system: U-251
# OVCAR-5 = system: OVCAR-5
# ACHN = system: ACHN
# UO-31 = system: UO-31
# HCT-116 = system: HCT-116
# SF-539 = system: SF-539
structure (smiles),measurement,setting,value
CCCOc1c2cc(COC3OC(CO)C(O)C(O)C3O)cc1Cc1cc(COC3OC(CO)C(O)C(O)C3O)cc(c1OCCC)Cc1cc(COC3OC(CO)C(O)C(O)C3O)cc(c1OCCC)Cc1cc(COC3OC(CO)C(O)C(O)C3O)cc(c1OCCC)C2 (stereo not given),GI50,HCC 2998,45.6 µM (inactive) and 57.8 µM (inactive) and 32 µM (inactive)
same,GI50,HOP-92,48.9 µM (inactive) and 57.1 µM (inactive)
same,GI50,RPMI-8226,50.7 µM (inactive) and 54.3 µM (inactive)
same,GI50,NCI/ADR-RES,> 100 µM (inactive) and 92.7 µM (inactive)
same,GI50,MOLT-4,14.4 µM (inactive)
same,GI50,Malme-3M,> 100 µM (inactive)
same,GI50,Hs-578T,54 µM (inactive) and 39.1 µM (inactive)
CC(=O)N1C(NN(C)C)CCN1c1ccccc1 (stereo not given),GI50,SNB-75,> 10 µM (inactive)
same,GI50,T47D,> 10 µM (inactive)
same,GI50,MCF7,> 10 µM (inactive)
same,GI50,SF-295,> 10 µM (inactive)
same,GI50,UACC-257,> 10 µM (inactive)
same,GI50,TK-10,> 10 µM (inactive)
same,GI50,EKVX,> 10 µM (inactive)
same,GI50,HCC 2998,> 10 µM (inactive)
same,GI50,DU-145,> 10 µM (inactive)
same,GI50,SK-MEL-28,> 10 µM (inactive)
same,GI50,CCRF-CEM,> 10 µM (inactive)
same,GI50,M14,> 10 µM (inactive)
same,GI50,HOP-92,> 10 µM (inactive)
same,GI50,OVCAR-8,> 10 µM (inactive)
same,GI50,COLO 205,> 10 µM (inactive)
same,GI50,RPMI-8226,> 10 µM (inactive)
same,GI50,MDA-MB-231,> 10 µM (inactive)
same,GI50,NCI-H23,> 10 µM (inactive)
same,GI50,SR,> 10 µM (inactive)
same,GI50,HOP-62,> 10 µM (inactive)
same,GI50,SW-620,> 10 µM (inactive)
same,GI50,PC-3,> 10 µM (inactive)
same,GI50,MDA-MB-435,> 10 µM (inactive)
same,GI50,K562,> 10 µM (inactive)
same,GI50,UACC-62,> 10 µM (inactive)
same,GI50,KM12,> 10 µM (inactive)
same,GI50,MOLT-4,> 10 µM (inactive)
same,GI50,HL-60,> 10 µM (inactive)
same,GI50,HT-29,> 10 µM (inactive)
same,GI50,SF-268,> 10 µM (inactive)
same,GI50,SK-OV-3,> 10 µM (inactive)
same,GI50,HCT-15,> 10 µM
same,GI50,IGROV-1,> 10 µM (inactive)
same,GI50,A549,> 10 µM (inactive)
same,GI50,Malme-3M,> 10 µM (inactive)
same,GI50,OVCAR-4,> 10 µM (inactive)
same,GI50,RXF 393,> 10 µM (inactive)
same,GI50,CAKI-1,> 10 µM (inactive)
same,GI50,786-0,> 10 µM (inactive)
same,GI50,SK-MEL-5,> 10 µM (inactive)
same,GI50,SN12C,> 10 µM (inactive)
C/C1=C\[C@H](C)C[C@H](C)OC(=O)C[C@H](c2ccc(O)cc2)NC(=O)[C@H](Cc2ccc(O)c(Br)c2)N(C)C(=O)[C@H](C)NC(=O)[C@@H](C)C1,GI50,SNB-75,> 25 µM (inactive)
same,GI50,NCI-H522,> 25 µM (inactive)
same,GI50,MCF7,> 25 µM (inactive)
same,GI50,SNB-19,> 25 µM (inactive)
same,GI50,SF-295,> 25 µM (inactive)
same,GI50,TK-10,> 25 µM (inactive)
same,GI50,EKVX,> 25 µM (inactive)
same,GI50,DU-145,> 25 µM (inactive)
same,GI50,SK-MEL-28,> 25 µM (inactive)
same,GI50,CCRF-CEM,> 25 µM (inactive)
same,GI50,M14,> 25 µM (inactive)
same,GI50,HOP-92,> 25 µM (inactive)
same,GI50,OVCAR-8,> 25 µM (inactive)
same,GI50,COLO 205,> 25 µM (inactive)
same,GI50,RPMI-8226,> 25 µM (inactive)
same,GI50,MDA-N,> 25 µM (inactive)
same,GI50,MDA-MB-231,> 25 µM (inactive)
same,GI50,NCI-H23,> 25 µM (inactive)
same,GI50,NCI/ADR-RES,> 25 µM (inactive)
same,GI50,SR,> 25 µM (inactive)
same,GI50,HOP-62,> 25 µM (inactive)
same,GI50,SW-620,> 25 µM (inactive)
same,GI50,SK-MEL-2,> 25 µM (inactive)
same,GI50,PC-3,> 25 µM (inactive)
same,GI50,A498,> 25 µM (inactive)
same,GI50,MDA-MB-435,> 25 µM (inactive)
same,GI50,NCI-H226,> 25 µM (inactive)
same,GI50,LOX IMVI,> 25 µM (inactive)
same,GI50,K562,> 25 µM (inactive)
same,GI50,UACC-62,> 25 µM (inactive)
same,GI50,KM12,> 25 µM (inactive)
same,GI50,MOLT-4,> 25 µM (inactive)
same,GI50,HT-29,> 25 µM (inactive)
same,GI50,SF-268,> 25 µM (inactive)
same,GI50,SK-OV-3,> 25 µM (inactive)
same,GI50,HCT-15,> 25 µM
same,GI50,IGROV-1,> 25 µM (inactive)
same,GI50,OVCAR-3,> 25 µM (inactive)
same,GI50,U-251,> 25 µM (inactive)
same,GI50,A549,> 25 µM (inactive)
same,GI50,Malme-3M,> 25 µM (inactive)
same,GI50,OVCAR-4,> 25 µM (inactive)
same,GI50,Hs-578T,> 25 µM (inactive)
same,GI50,OVCAR-5,> 25 µM (inactive)
same,GI50,786-0,> 25 µM (inactive)
same,GI50,ACHN,> 25 µM (inactive)
same,GI50,UO-31,> 25 µM (inactive)
same,GI50,HCT-116,> 25 µM (inactive)
same,GI50,SK-MEL-5,> 25 µM (inactive)
same,GI50,SN12C,> 25 µM (inactive)
COc1cc(CC(C)N[C@@H](C)c2ccccc2)cc(OC)c1 (stereo not given in full),GI50,NCI-H522,> 100 µM (inactive)
same,GI50,SK-MEL-2,> 100 µM (inactive)
same,GI50,KM12,> 100 µM (inactive)
same,GI50,SF-539,> 100 µM (inactive)
same,GI50,Hs-578T,72.1 µM (inactive)
same,GI50,RXF 393,> 100 µM (inactive)
same,GI50,CAKI-1,> 100 µM (inactive)
